In patent US20190037899A1, “Intramolecular Trans-Sialidase” (THE INSTITUTE OF FOOD RESEARCH, priority 2016, published 2019):

Tests used:
[1] = Spontaneous conversion of 2,7-anhydro-Neu5Ac to Neu5Ac (1H NMR, HPAEC-PAD); assay type: physicochemical; details: up to 24 h at 37° C.
sialic acid aldolase = molecular target: T1, sialic acid aldolase (Escherichia coli, UniProt P0A6L4); assay: Degradation of 2,7-anhydro-Neu5Ac by sialic acid aldolase; assay type: biochemical
T1 construct: purchased Carbosynth Limited (Compton, UK)
T1 sequence (P0A6L4 whole entry): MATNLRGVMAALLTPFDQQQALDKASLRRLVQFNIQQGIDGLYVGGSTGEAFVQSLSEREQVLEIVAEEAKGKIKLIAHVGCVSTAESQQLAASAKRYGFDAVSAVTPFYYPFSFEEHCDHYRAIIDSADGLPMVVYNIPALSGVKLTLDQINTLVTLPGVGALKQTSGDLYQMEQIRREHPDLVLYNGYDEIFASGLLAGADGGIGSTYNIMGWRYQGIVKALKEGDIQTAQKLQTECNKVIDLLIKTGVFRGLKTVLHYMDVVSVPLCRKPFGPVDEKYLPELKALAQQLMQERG
Protocol: A dialysis membrane (7K MWCO) containing fetuin (0.3 mM) was incubated in 100 mM ammonium formate buffer pH 6.5 for 2 h at 37° C. under gentle shaking (115 rpm). Following the addition of 50 nM RgNanH (in Tris buffer 40 mM pH 7.9) into the dialysis membrane, the reaction mixture was further incubated in 100 mM ammonium formate buffer (pH 6.5) at 115 rpm, 37° C. for 24 h. Sialic acid aldolase (17.4 units in 100 mM ammonium formate) was added to the membrane enclosed reaction mixture. Following a further 20 h incubation at 115 rpm and 37° C., 100 mL of buffer was recovered, diluted with 100 mL of ultrapure water and freeze dried. The membrane enclosed reaction mixture was dialysed with 100 mL ultrapure water for 2 h and again overnight under 115 rpm shaking and at 37° C. The water was recovered, mixed with the dried synthesis buffer and freeze dried. After complete dryness, the powder was dissolved in 100 mL ultrapure water and freeze dried again 3 times to remove volatile salts.
Considering the difficulty and the low efficiency of the separation of free Neu5Ac from 2,7-anhydro-Neu5Ac, a commercially available sialic acid aldolase from E. coli was introduced into the dialysis membrane with RgNanH and fetuin. […]

[2] = test system: R. gnavus strains (ATCC 29149 and ATCC 35913); assay: Growth of R. gnavus strains on 2,7-anhydro-Neu5Ac as sole carbon source; assay type: cell-based, Ruminococcus gnavus; details: anaerobic
Protocol: The ability of pathogens to utilise 2,7-anhydroSA as a potential nutrient by growing the cells in presence of 2,7-anhydroSA (or sialic acid as a control) as sole carbon source under anaerobic conditions is tested. […] The ability of these pathogens to utilise 2,7-anhydro-Neu5Ac is tested by growing the cells in vitro with 2,7-anhydro-Neu5Ac synthesised using the enzymatic synthesis as described above, as sole carbon source. Growth is determined spectrophotometrically and analysed using an appropriately developed DMFit program to compare the effect of the carbon source on growth rates. The impact of ITS on the ability of pathogens to grow on mucins purified from human “goblet-like” cells is tested in co-culture experiments with R. gnavus strains (ATCC 29149 expressing ITS and E1 as a negative control) in anaerobic continuous reactors.

## CC(=O)N[C@H]1[C@H]2O[C@@](C(=O)O)(C[C@@H]1O)O[C@@H]2[C@H](O)CO [2,7-anhydro-Neu5Ac, 2,7-anhydro-α-N-acetylneuraminic acid]
[1]
  Spontaneous conversion of 2,7-anhydro-Neu5Ac to Neu5Ac: no spontaneous conversion
Sialic acid aldolase
  Degradation by sialic acid aldolase: resistant to degradation
[2]
  Growth of R. gnavus strains on the compound as sole carbon source: able to grow
